Data published in ChEMBL document CHEMBL1134351, “Synthesis of new cyclitol compounds that influence the activity of phosphatidylinositol 4-kinase isoform, PI4K230” (J Med Chem, 2001).

What follows are molecules tested against Phosphatidylinositol 4-kinase alpha (Bos taurus) (UniProt O02811) (assay: Inactivation of the enzyme PI4K230 from bovine brain membranes).
Chain of Phosphatidylinositol 4-kinase alpha (Bos taurus) (O02811 whole entry): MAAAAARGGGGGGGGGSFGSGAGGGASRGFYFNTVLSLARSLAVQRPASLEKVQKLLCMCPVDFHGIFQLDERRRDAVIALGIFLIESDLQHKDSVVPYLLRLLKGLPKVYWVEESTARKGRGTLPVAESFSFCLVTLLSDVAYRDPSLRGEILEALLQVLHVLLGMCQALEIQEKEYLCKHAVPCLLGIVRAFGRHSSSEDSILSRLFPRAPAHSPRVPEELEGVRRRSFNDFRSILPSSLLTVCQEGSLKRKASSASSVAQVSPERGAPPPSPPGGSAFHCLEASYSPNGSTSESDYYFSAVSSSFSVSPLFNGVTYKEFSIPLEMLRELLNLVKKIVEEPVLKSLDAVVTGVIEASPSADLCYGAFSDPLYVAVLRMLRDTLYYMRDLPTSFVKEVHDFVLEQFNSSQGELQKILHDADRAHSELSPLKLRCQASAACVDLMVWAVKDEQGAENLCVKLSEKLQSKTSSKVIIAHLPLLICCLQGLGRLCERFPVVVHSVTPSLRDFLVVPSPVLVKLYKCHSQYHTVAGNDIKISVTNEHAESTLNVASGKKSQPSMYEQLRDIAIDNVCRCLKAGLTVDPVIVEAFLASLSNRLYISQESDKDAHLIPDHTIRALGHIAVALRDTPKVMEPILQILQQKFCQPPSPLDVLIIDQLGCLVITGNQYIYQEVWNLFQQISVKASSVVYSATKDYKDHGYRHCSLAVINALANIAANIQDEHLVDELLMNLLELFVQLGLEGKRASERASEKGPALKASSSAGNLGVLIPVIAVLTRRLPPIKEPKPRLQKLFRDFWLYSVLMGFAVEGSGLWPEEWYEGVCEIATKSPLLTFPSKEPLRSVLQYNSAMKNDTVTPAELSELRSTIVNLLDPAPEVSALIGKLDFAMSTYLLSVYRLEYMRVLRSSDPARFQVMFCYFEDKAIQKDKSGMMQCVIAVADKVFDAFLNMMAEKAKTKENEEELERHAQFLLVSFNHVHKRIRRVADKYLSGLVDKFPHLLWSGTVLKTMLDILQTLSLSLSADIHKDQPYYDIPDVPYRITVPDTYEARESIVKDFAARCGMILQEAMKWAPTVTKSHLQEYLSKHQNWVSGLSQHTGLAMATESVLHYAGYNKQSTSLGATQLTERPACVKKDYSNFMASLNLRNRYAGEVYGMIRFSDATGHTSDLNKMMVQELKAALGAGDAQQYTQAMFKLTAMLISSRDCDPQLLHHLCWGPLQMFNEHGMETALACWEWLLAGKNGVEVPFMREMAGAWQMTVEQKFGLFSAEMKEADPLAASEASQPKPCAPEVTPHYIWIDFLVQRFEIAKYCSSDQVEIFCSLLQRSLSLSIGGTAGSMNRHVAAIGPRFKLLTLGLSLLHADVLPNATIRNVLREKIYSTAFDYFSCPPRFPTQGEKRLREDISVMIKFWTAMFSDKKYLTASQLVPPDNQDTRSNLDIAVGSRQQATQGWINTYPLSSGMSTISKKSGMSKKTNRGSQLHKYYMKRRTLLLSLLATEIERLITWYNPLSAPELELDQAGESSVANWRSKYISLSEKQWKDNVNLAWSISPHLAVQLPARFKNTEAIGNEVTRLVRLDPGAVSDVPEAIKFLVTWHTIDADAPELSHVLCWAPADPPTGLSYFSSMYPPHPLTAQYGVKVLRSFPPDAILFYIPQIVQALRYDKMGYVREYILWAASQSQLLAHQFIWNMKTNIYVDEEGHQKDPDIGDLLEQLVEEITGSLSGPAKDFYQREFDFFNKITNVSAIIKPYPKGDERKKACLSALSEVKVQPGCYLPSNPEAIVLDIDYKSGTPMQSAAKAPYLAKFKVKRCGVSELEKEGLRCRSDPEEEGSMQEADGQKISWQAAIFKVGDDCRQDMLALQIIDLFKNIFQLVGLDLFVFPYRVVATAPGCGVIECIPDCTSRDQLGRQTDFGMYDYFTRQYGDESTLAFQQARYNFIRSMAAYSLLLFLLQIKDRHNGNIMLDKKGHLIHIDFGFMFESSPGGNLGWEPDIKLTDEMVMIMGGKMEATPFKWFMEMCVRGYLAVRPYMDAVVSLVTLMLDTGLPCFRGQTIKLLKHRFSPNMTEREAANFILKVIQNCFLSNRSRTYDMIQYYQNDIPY
Parameters: concentration or dose not given beside the values
`[N-]=[N+]=N[C@@H]1CC=CC(=O)[C@H]1OC(=O)c1ccccc1` was tested, and the Remaining activity was 5%.
With `CC(=O)O[C@H]1CC(=O)[C@@H](OC(=O)c2ccccc2)[C@H](N=[N+]=[N-])C1` the Remaining activity was 10%.
`CC(=O)O[C@@H]1C[C@@H](N=[N+]=[N-])[C@H](OC(=O)c2ccccc2)C2(C1)SCCS2` gave a Remaining activity of 96%.
In the case of `CC(=O)O[C@@H]1CC(=O)[C@@H](OCc2ccccc2)[C@H](N=[N+]=[N-])C1`, the Remaining activity is reported as 82%.
In the case of `[N-]=[N+]=N[C@@H]1C[C@@H](O)CC2(SCCS2)[C@H]1OC(=O)c1ccccc1`, the Remaining activity is reported as 96%.
Work on `CC(=O)O[C@@H]1[C@@H](NC(=O)c2ccccc2)[C@@H](O)CC(=O)[C@H]1OC(C)=O` yielded a Remaining activity of 56%.
Work on `[N-]=[N+]=N[C@@H]1C[C@@H](O)CC(=O)[C@H]1OC(=O)c1ccccc1` yielded a Remaining activity of 80%.
`CC(=O)O[C@@H]1CC(=O)[C@@H](OC(=O)c2ccccc2)[C@H](OC(=O)c2ccccc2)C1` was tested, and the Remaining activity was 20%.
Work on `COC(=O)/C=C1\C[C@H](O)C[C@@H](N=[N+]=[N-])[C@@H]1OCc1ccccc1` yielded a Remaining activity of 70%.
Molecule `CC1(C)OC2C=CC(=O)CC2O1` (centres undefined) has a Remaining activity of 57%.
`[N-]=[N+]=N[C@@H]1C[C@@H](O)C/C(=N\O)[C@H]1OC(=O)c1ccccc1` gave a Remaining activity of 66%.
`COC(=O)/C=C1\C[C@H](O)C[C@@H](N=[N+]=[N-])[C@@H]1OC(=O)c1ccccc1` was tested, and the Remaining activity was 63%.
`CC1(C)OC2CC(=O)C[C@@H](O)C2O1` (some centres undefined) was tested, and the Remaining activity was 80%.
Molecule `COC(=O)/C=C1\C[C@H](O)C[C@@H](OC(=O)c2ccccc2)[C@@H]1OC(=O)c1ccccc1` has a Remaining activity of 64%.
For `[N-]=[N+]=N[C@@H]1CC=CC(=O)[C@H]1OCc1ccccc1`, the Remaining activity was 85%.
`[N-]=[N+]=N[C@@H]1C[C@@H](O)CC(=O)[C@H]1OCc1ccccc1` showed a Remaining activity of 85%.
`O=C1C[C@H](O)CC=C1OC(=O)c1ccccc1` gave a Remaining activity of 51%.
`O=C(O[C@@H]1C(=O)C=CC[C@H]1OC(=O)c1ccccc1)c1ccccc1` was tested, and the Remaining activity was 8%.
For `O=C(O[C@@H]1C(=O)C[C@H](O)C[C@H]1OC(=O)c1ccccc1)c1ccccc1`, the Remaining activity was 84%.
